Test results: ChEMBL document CHEMBL1201862, “PubChem BioAssay data set” (2004)
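Results reflect a 48-hour exposure of cells in 96-well plates to compound at five concentrations. GI50 is the concentration that inhibits growth by half.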 Activity calls are given as the source filed them. Rule as the data show it: active = GI50 up to about 1.1 µM and inactive = higher.

Key:
Assay in all cases: DTP human tumour cell line panel, 48 h
[1] = test system: LOX IMVI
[2] = test system: SK-MEL-5
[3] = test system: NCI/ADR-RES
[4] = test system: MDA-MB-231
[5] = test system: SF-539
[6] = test system: SNB-75
[7] = test system: HCC 2998
[8] = test system: HT-29
[9] = test system: MDA-MB-435
[10] = test system: M14
[11] = test system: NCI-H23
[12] = test system: 786-0
[13] = test system: SK-MEL-2
[14] = test system: SN12C
[15] = test system: EKVX
[16] = test system: KM12
[17] = test system: PC-3
[18] = test system: NCI-H460
[19] = test system: NCI-H226
[20] = test system: BT-549

Measured: GI50

O=C(O)c1cc(C(=O)O)nc(C(=O)O)c1
inactive: [1] > 100 µM | [2] > 100 µM | [3] > 100 µM | [4] > 100 µM | [5] > 100 µM | [6] > 100 µM | [7] > 100 µM | [8] > 100 µM | [9] > 100 µM | [10] > 100 µM | [11] > 100 µM | [12] > 100 µM | [13] > 100 µM | [14] > 100 µM | [15] > 100 µM | [16] > 100 µM | [17] > 100 µM | [18] > 100 µM | [19] > 100 µM | [20] > 100 µM

CC(C)C1OC(/C=C/c2ccccc2)OCC1(C)C (stereo not drawn)
inactive: [1] 18.9 µM | [2] 17.7 µM | [3] 41.6 µM | [4] 36.4 µM | [6] 26.9 µM | [7] 19.6 µM | [8] 27.7 µM | [9] 33.7 µM | [10] 36.2 µM | [11] 27.7 µM | [12] 37.1 µM | [13] 18.2 µM | [14] 21.6 µM | [15] 27.5 µM | [16] 31 µM | [17] 37.1 µM | [18] 17.1 µM | [19] 23.5 µM | [20] 36.1 µM

CN(C)c1ccc2nc3c(C(=O)O)cc(O)c(O)c3[o+]c2c1
inactive: [1] 33.1 µM | [2] 15.3 µM | [3] 28.7 µM | [4] 33 µM | [5] 27 µM | [6] 21.5 µM | [8] 38.5 µM | [9] 21.2 µM | [10] 21.7 µM | [11] 16.8 µM | [12] 29.1 µM | [13] 16.3 µM | [14] 20.2 µM | [15] 26.4 µM | [16] 26.9 µM | [17] 36.5 µM | [18] 24.8 µM | [19] 56.5 µM | [20] 20.9 µM

Cc1c2c(c(O)c3c(O)cccc13)C(=O)C1(O)C(=O)C(C(=O)NCNc3ccc(C(N)=O)cn3)=C(O)C(N(C)C)C1C2 (stereo not drawn)
inactive: [1] 4.78 µM | [2] 2.16 µM | [3] 5.5 µM | [4] 3.78 µM | [5] 2.52 µM | [6] 2.84 µM | [7] 3.07 µM | [8] 3.89 µM | [9] 3.69 µM | [10] 3.63 µM | [11] 7.74 µM | [12] 5.52 µM | [13] 6.95 µM | [14] 4.78 µM | [15] 4.33 µM | [16] 3.53 µM | [17] 3.68 µM | [19] 2.94 µM | [20] 3.48 µM

Cc1ccc(S(=O)(=O)Oc2nc3nc4ccccc4nc3nc2OS(=O)(=O)c2ccc(C)cc2)cc1
inactive: [2] > 100 µM | [3] > 100 µM | [4] > 100 µM | [5] > 100 µM | [6] > 100 µM | [7] > 100 µM | [8] > 100 µM | [9] > 100 µM | [10] > 100 µM | [11] > 100 µM | [12] > 100 µM | [13] > 100 µM | [14] > 100 µM | [15] 13.6 µM | [16] > 100 µM | [17] > 100 µM | [18] > 100 µM | [19] > 100 µM | [20] > 100 µM

c1ccc(C(CCN2CCCC2)c2ccccn2)cc1 (stereo not drawn)
inactive: [1] > 100 µM | [2] > 100 µM | [3] > 100 µM | [4] > 100 µM | [6] > 100 µM | [7] > 100 µM | [8] > 100 µM | [9] > 100 µM | [10] > 100 µM | [11] > 100 µM | [12] > 100 µM | [13] > 100 µM | [14] > 100 µM | [15] > 100 µM | [16] > 100 µM | [17] > 100 µM | [18] > 100 µM | [19] > 100 µM | [20] > 100 µM

Cc1c(C=C(C#N)C#N)c(=O)n(C)c(=O)n1C
inactive: [1] > 100 µM | [2] > 100 µM | [3] > 100 µM | [4] > 100 µM | [5] > 100 µM | [6] > 100 µM | [8] > 100 µM | [9] > 100 µM | [10] > 100 µM | [11] > 100 µM | [12] > 100 µM | [13] > 100 µM | [14] > 100 µM | [15] 81.5 µM | [16] > 100 µM | [17] > 100 µM | [18] > 100 µM | [19] > 100 µM | [20] > 100 µM

COc1ccc(/C=C(/C#N)C(N)=O)cc1OC
inactive: [1] > 100 µM | [2] > 100 µM | [3] > 100 µM | [4] > 100 µM | [5] > 100 µM | [6] > 100 µM | [8] > 100 µM | [9] > 100 µM | [10] > 100 µM | [11] > 100 µM | [12] > 100 µM | [13] > 100 µM | [14] > 100 µM | [15] > 100 µM | [16] > 100 µM | [17] > 100 µM | [18] > 100 µM | [19] > 100 µM | [20] > 100 µM

CN1CCC23c4c5ccc(O)c4OC2c2[nH]c4ccccc4c2CC3(O)C1C5 (stereo not drawn)
inactive: [1] 21.5 µM | [2] 13.5 µM | [3] > 100 µM | [4] 31.5 µM | [6] 36.7 µM | [7] 17.5 µM | [8] 31.9 µM | [9] 18.2 µM | [10] 17.7 µM | [11] > 100 µM | [12] 18.7 µM | [13] 20.6 µM | [14] 70.5 µM | [15] 92.9 µM | [16] 51.2 µM | [17] 41.6 µM | [18] 29.2 µM | [20] 45.1 µM

N#Cc1ccc(Oc2nc3ccccc3nc2C(=O)O)cc1
inactive: [1] > 100 µM | [2] > 100 µM | [3] > 100 µM | [4] > 100 µM | [6] > 100 µM | [7] > 100 µM | [8] > 100 µM | [9] > 100 µM | [10] > 100 µM | [11] > 100 µM | [12] > 100 µM | [13] > 100 µM | [15] > 100 µM | [16] > 100 µM | [17] > 100 µM | [18] > 100 µM | [19] > 100 µM | [20] > 100 µM

O=c1oc2ccccc2cc1/C=N/N1C(=S)N(c2ccccc2)C(=N\c2ccccc2)/C1=N/c1ccccc1
inactive: [2] 87.7 µM | [3] > 100 µM | [4] > 100 µM | [5] > 100 µM | [6] 1.65 µM | [7] > 100 µM | [8] > 10 µM | [9] > 100 µM | [10] > 100 µM | [11] > 100 µM | [12] > 100 µM | [13] > 100 µM | [14] > 100 µM | [15] > 100 µM | [16] > 100 µM | [17] 14 µM | [18] 47.6 µM | [19] > 100 µM | [20] > 100 µM

CCOC(=O)Nc1sc2c(c1C#N)CC(C)CC2 (stereo not drawn)
inactive: [1] 10.2 µM | [2] 4.8 µM | [3] 1.96 µM | [4] 5.56 µM | [6] 2.82 µM | [7] 2.24 µM | [8] 3.06 µM | [9] 1.32 µM | [10] 2.66 µM | [11] 25.6 µM | [12] 10.1 µM | [13] 2.16 µM | [14] 9.62 µM | [15] 24.7 µM | [16] 3.9 µM | [17] 5.35 µM | [18] 3.41 µM | [19] 6.15 µM | [20] 19.7 µM

Clc1ccc(CCNCCNC2(c3cc4ccccc4s3)CCCCC2)cc1Cl
inactive: [1] 1.74 µM | [2] 1.72 µM | [3] 1.8 µM | [4] 1.78 µM | [6] 1.96 µM | [7] 1.5 µM | [8] 1.83 µM | [9] 2.02 µM | [10] 2.01 µM | [11] 1.78 µM | [12] 1.95 µM | [13] 1.76 µM | [14] 1.96 µM | [15] 2.08 µM | [16] 1.6 µM | [17] 1.73 µM | [18] 1.73 µM | [19] 1.87 µM | [20] 1.94 µM

Clc1cccc(Cl)c1C1SCc2nc3cc4ccccc4cc3n21 (stereo not drawn)
inactive: [2] > 100 µM | [3] > 100 µM | [4] > 100 µM | [6] > 100 µM | [7] > 100 µM | [8] > 100 µM | [9] > 100 µM | [10] > 100 µM | [11] > 100 µM | [12] > 100 µM | [13] > 100 µM | [14] > 100 µM | [15] > 100 µM | [16] > 100 µM | [17] > 100 µM | [18] > 100 µM | [19] > 100 µM | [20] > 100 µM

COC(=O)c1ccccc1C1CN=NC12Cc1c(ccc(C)c1C)C2=O (stereo not drawn)
inactive: [1] > 100 µM | [2] > 100 µM | [3] > 100 µM | [4] 81.5 µM | [6] 22 µM | [7] > 100 µM | [8] > 100 µM | [9] > 100 µM | [10] > 100 µM | [11] > 100 µM | [12] 38.4 µM | [13] > 100 µM | [14] > 100 µM | [15] > 100 µM | [16] > 100 µM | [17] 90.6 µM | [18] > 100 µM | [19] > 100 µM | [20] > 100 µM
